Experimental data published in US6342514B1, “Compositions and methods for treating bone deficit conditions” (ZymoGenetics, Inc., priority 1996, dated 2002).

Legend:
mouse BMP2 promoter = experiment: High throughput screening: BMP-2 promoter luciferase reporter assay in 2T3-BMP-2-LUC cells; type: cell-based; details: at about 3 μM
Text: A rapid throughput screening test for compounds capable of stimulating expression of a reporter gene linked to a BMP promoter (a surrogate for the production of bone morphogenetic factors that are endogenously produced) is described in U.S. application Ser. No. 08/458,434, filed Jun. 2, 1995, the contents of which are incorporated herein by reference. This assay is also described as a portion of a study of immortalized murine osteoblasts (derived from a mouse expressing a transgene composed of a BMP2 promoter driving expression of T-antigen) in Ghosh-Choudhery, N. et al. Endocrinology (1996) 137:331-39. […]
Briefly, the assay utilizes cells transformed permanently or transiently with constructs in which the promoter of a bone morphogenetic protein, specifically BMP2 or BMP4, is coupled to a reporter gene, typically luciferase. These transformed cells are then evaluated for the production of the reporter gene product; compounds that activate the BMP promoter will drive production of the reporter protein, which can be readily assayed. […]
The treated cells were incubated for 24 hours at 37° C. and 5% CO2. […] Luminescence was measured on an automated 96-well luminometer, and was expressed as either picograms of luciferase activity per well or as picograms of luciferase activity per microgram of protein. […]

[1] = tested on: calvarial bone of ICR Swiss white mice; experiment: In vivo assay of effects of compounds on murine calvarial bone growth; parameters: species or system mouse; details: subcutaneous injection over right calvaria, day 14, compared to vehicle control
Experimental: Male ICR Swiss white mice, aged 4-6 weeks and weighing 13-26 gm, are employed, using 4-5 mice per group. The calvarial bone growth assay is performed as described in PCT application WO 95/24211. Briefly, the test compound or appropriate control vehicle is injected into the subcutaneous tissue over the right calvaria of normal mice. Typically, the control vehicle is the vehicle in which the compound was solubilized, and is PBS containing 5% DMSO or is PBS containing Tween (2 μl/10 ml). The animals are sacrificed on day 14 and bone growth measured by histomorphometry. Bone samples for quantitation are cleaned from adjacent tissues and fixed in 10% buffered formalin for 24-48 hours, decalcified in 14% EDTA for 1-3 weeks, processed through graded alcohols; and embedded in paraffin wax. Three to five μm sections of the calvaria are prepared, and representative sections are selected for histomorphometric assessment of the effects on bone formation and bone resorption. Sections are measured by using a camera lucida attachment to trace directly the microscopic image onto a digitizing plate. Bone changes are measured on sections cut 200 μm apart, over 4 adjacent 1×1 mm fields on both the injected and noninjected sides of the calvaria. New bone is identified by its characteristic woven structure, and osteoclasts and osteoblasts are identified by their distinctive morphology. […]

[2] = tested on: TMC-23 mouse clonal chondrogenic cell line; experiment: Chondrogenic activity: alkaline phosphatase (ALP) activity in TMC-23 cells; type: cell-based; details: day 2, 10^−9 M, compared to vehicle control
Experimental: Briefly, a mouse clonal chondrogenic cell line, TMC-23, was isolated and cloned from costal cartilage of transgenic mice containing the BMP-2 gene control region driving SV-40 large T-antigen, generated as described in Ghosh-Choudhury et al Endocrinology 137:331-39, 1996.
For measurement of alkaline phosphatase (ALP) activity, the technique of LF Bonewald et al. J Biol Chem (1992) 267:8943-49, was employed. Briefly, TMC-23 cells were plated in 96 well microtiter plates in DMEM containing 10% FCS at 4×10^3 cells/well. Two days after plating, the cells were confluent and the medium was replaced with fresh medium containing 10% FCS and different concentrations of compounds or recombinant BMP-2. After an additional 2 or 5 days incubation, the plates were washed twice with PBS, and then lysing solution (0.05% Triton X-100) was added (100 μl/well). The cells were lysed by three freeze-thaw cycles of −70° C. (30 min), followed by 37° C. (30 min with shaking). […] The spectrophotometric absorbance at 405 nm was compared to that of p-nitrophenol standards to estimate ALP activity in the samples. The protein content of the cell lysates was determined by the Bio-Rad protein assay kit (Bio-Rad, Hercules, Calif.). Specific activity was calculated using these two parameters.

## c1ccc(N=NC2=NNc3ccccc3S2)cc1 [Compound 59-0008, 3-phenylazo-1H-4,1,2-benzothiadiazine]
Mouse BMP2 promoter
  luciferase response at maximal activity: approximately 175 light emission units
[1]
  increase in width of new calvarial bone: 4 fold
[2]
  increase of ALP levels: approximately 3 fold
